Results from paper PMC7456776, “The utility of a differentiated preclinical liver model, HepaRG cells, in investigating delayed toxicity via inhibition of mitochondrial-replication induced by fialuridine” (Toxicology and Applied Pharmacology, 2020).
“Also recorded” adds a separate entry of the source. Read-outs that look alike come from different tables or passages of the source. Values belong to the compound of their own block, whether it stands above or below them.

Legend:
[1] = test system: HepaRG cells; test: Metabolic modification assay: dual ATP and cell viability (total cellular protein) assessment, extended dosing; assay type: cell-based, human
Method: In accordance with Biopredic international guidelines, undifferentiated HepaRG cells were seeded into clear flat bottomed 96 well (9000 cells/well) or Seahorse plates (4000 cells/well). They were grown for two weeks in growth media before their differentiation over 2 further weeks in differentiation media. Cells were kept at 37 °C, 5% CO2 in a humidified environment and received fresh, appropriate media twice a week. The fully differentiated cells were then used over the following four-week period, whilst being maintained in differentiation media. All experiments were performed using cells at passage number < 20.
(§1) Differentiated HepaRG cells were treated with 0–300 μM final concentrations of FIAU (1–4 weeks). FIAU was replaced in fresh differentiation media every 3–4 days. The final concentration of DMSO was at a constant 0.5% v/v in both HepaRG and HepG2 treatments. In all experiments dosing was performed in glucose supplemented media.
This was performed as previously described ([Kamalian et al., 2018]). […] IC50 values were calculated using Prism (GraphPad, California, USA) (Table 1) and criteria applied to identify a compound as a direct mitochondrial toxin.
Each experiment was performed on three or more independent occasions (n ≥ 3). IC50 values were calculated using GraphPad Prism 7 software, and were expressed as a mean ± standard deviation (SD). For all other statistical analysis comparing the values obtained from treated cells to vehicle control an ANOVA was performed, with a Dunnett or Tukey post hoc analysis where appropriate. P values lower than 0.05 were considered as statistically significant for both tests.

[2] = test system: HepaRG cells; test: Seahorse XFe mitochondrial stress test (oxygen consumption, extracellular acidification); assay type: cell-based, human
Method: (§2) Briefly, following the dosing period, media was switched to unbuffered XF basal medium (175 μl, pH 7.4) supplemented with glucose (25 mM), L-glutamine (2 mM) and sodium pyruvate (1 mM) before incubating in a CO2 free incubator (37 °C). Oxygen consumption was measured by Seahorse XFe96 according to the previously described protocol ([Kamalian et al., 2018]).

[3] = test system: patients; set-up: method as in McKenzie et al., 1995; conditions: ref McKenzie et al., 1995, cited from earlier work
[4] = test system: HepG2 cells; test: Mitochondrial DNA content by real-time PCR; assay type: cell-based, human; conditions: HepG2, 1.3–100 μM, up to 72 h
Method: (§3) DNA was extracted via QIAamp DNA Mini Kit (Qiagen, Crawley, UK). Relative levels of mtDNA copy number were determined by real-time pre-designed PCR Taqman detection kits designed to target the mitochondrial MT-ND1 gene and the nuclear RNase P gene, using TAQMAN GT Master Mix. PCR reactions were performed according to standard conditions for TaqMan: 95 °C for 10 min; 40 cycles at (95 °C 15 s, 60 °C 1 min). PCR assays were performed in duplicate for each DNA sample. Analysis was undertaken with mitochondrial ND-1 normalised to genomic RNase P and treated sample to the appropriate vehicle.
Figure Supp 3: Mitochondrial DNA content in HepG2 cells exposed to FIAU (48 and 72 h). MtDNA content was measured by real-time PCR. HepG2 cells were exposed to FIAU (10 and 100 µM) at 48 h (black bar) and 72 h (grey bar). All results are presented as % of vehicle control. n=3.

[5] = test system: HepG2 cells; set-up: method as in Colacino et al., 1994; conditions: 6 days of treatment, ref Colacino et al., 1994; cited from earlier work
[6] = test system: HepG2 cells; test: Metabolic modification assay: ATP and total cellular protein, 72 h; assay type: cell-based, human; conditions: for Total cellular protein, % of vehicle control: HepG2, 300 μM, 3 days
Method: HepG2 cells were cultured and maintained in DMEM media as described previously ([Kamalian et al., 2015]).
as §1
This was performed as previously described ([Kamalian et al., 2018]). Briefly, following the dosing period, media was switched to either “glucose” or “galactose” media for 2 h prior to measuring cellular ATP content and lactate dehydrogenase (LDH) release as a marker of cell viability, both normalised to protein content. IC50 values were calculated using Prism (GraphPad, California, USA) (Table 1) and criteria applied to identify a compound as a direct mitochondrial toxin.

[7] = test system: HepaRG cells; test: Cellular L-lactate release; assay type: cell-based, human; conditions: 12 μM, four-week exposure
Method: Following incubation with drug the media from cells was transferred to a fresh 96-well plate and L-lactate levels were measured using an L-lactate assay kit as per the manufacturer's instructions.

[8] = test system: HepG2 cells; test: Seahorse XFe mitochondrial stress test; assay type: cell-based, human; conditions: HepG2, 1.3–100 μM, up to 72 h
Method: as §2
Figure Supp 4: The effect of FIAU on mitochondrial respiratory activity of HepG2 cells. The bioenergetic parameters of HepG2 cells following exposure to FIAU (12 µM) were calculated using Seahorse respirometry at 48 h (black bar) and 72 h (grey bar). All results are presented as % of vehicle control. Key: dashed line marks vehicle control at 100 %. n=3.

[9] = test system: HepaRG cells; test: Mitochondrial DNA content by real-time PCR (MT-ND1 normalised to RNase P); assay type: cell-based, human
Method: as §3

[10] = test system: HepaRG cells; test: Cellular steatosis by Oil Red O staining; assay type: cell-based, human; conditions: 12 μM, 4 weeks
Method: Following drug treatment cells were washed twice in PBS and fixed in 4% paraformaldehyde (1 h, RT). Cells were then washed twice in ddH2O and incubated in isopropanol (IPA, 60% v/v, 5 min). Oil red O working solution (3:2 in ddH2O from the stock solution of 0.33% w/v in 100% IPA) was applied to the cells for 20 min. Background staining was removed by several washes with ddH2O and a 5 min wash in 60% v/v IPA. The intracellular lipid was extracted by 100% IPA after the wells were dried. The lipid content was quantified by reading the optical density at 540 nm on a Varioskan Flash (Thermo Fisher Scientific, USA).

[11] = set-up: method as in Bowsher et al., 1994; conditions: healthy volunteers, 5 mg single dose; ref Bowsher et al., 1994; cited from earlier work
[12] = test system: PHH spheroids; set-up: method as in Bell et al., 2016; conditions: 3D PHH spheroids, 7 days; ref Bell et al., 2016; cited from earlier work
[13] = test system: HepaRG cells; conditions: human, 12 μM
[14] = test system: HepG2 cells; set-up: method as in Colacino et al., 1994; conditions: 9 days, 30 μM, ref Colacino et al., 1994; cited from earlier work
[15] = test system: mitochondrial respiratory complexes I, II, IV in permeabilised HepaRG cells; test: In-situ mito substrate assay of individual respiratory complex activity in permeabilised cells (Seahorse); assay type: cell-based, human; conditions: 12 μM
Text: The assessment of individual mitochondrial complex activity was preformed using the in-situ mito substrate assay in permeabilised cells using Seahorse Technology as previously described ([Ball et al., 2016]).

Mitochondrial respiration ([2]; 2 weeks, 12 μM and up to 100 μM): did not reduce mitochondrial respiration
SMILES: O=c1[nH]c(=O)n([C@@H]2O[C@H](CO)[C@@H](O)[C@H]2F)cc1I [FIAM]
Cytotoxic effects ([1]; HepaRG cells, up to 4 weeks): no cytotoxic effects | Cellular ATP content or cell viability compared to vehicle control ([1]; HepaRG, 4-week incubation period): no significant differences; also recorded: did not induce any decrease

SMILES: O=c1[nH]c(=O)n([C@@H]2O[C@H](CO)[C@@H](O)[C@@H]2F)cc1I [FIAU, fialuridine]
Adverse effects in clinical trial ([3]; extended trial period): five deaths from acute liver failure | Time at which toxicity became apparent ([3]; week of treatment): > 13 week | Mitochondrial copy number [4]: no significant differences in mitochondrial copy number | TC50 (Toxicity Concentration) [5]: 35 µM | Total cellular protein, % of vehicle control ([6]; galactose media): 40.5 ± 13.4% | Total cellular protein, % of vehicle control ([6]; glucose media): 49.0 ± 22.7% | Classification as mitotoxin ([6]; HepG2 cells, up to 3 days): cannot be classified as a mitotoxin | Extracellular L-lactate in cell supernatant [7]: no significant increase in L-lactate | Bioenergetic parameters [8]: no significant differences in bioenergetic parameters | mtDNA content, % of vehicle control ([9]; 4 μM, week 1): 59.2 ± 26.5% | mtDNA content, % of vehicle control ([9]; 10 μM, 1 week): 23.5 ± 11.9% | mtDNA content, % of vehicle control ([9]; 10 μM, 4 weeks): 5.8 ± 3.0% | Accumulation of intracellular lipids (oil red O) [10]: no accumulation of intracellular lipids | Cmax [11]: 600 nM | IC50 [12]: 0.7 µM | Individual mean mitochondrial area [13]: 0.19 ± 0.01 μm^2 | Number of mitochondria [13]: 0.80 ± 0.20 mitochondria/μm^2 of cytosol | mtDNA replication [14]: decreases | Concentration at which toxic effects were observed ([1]; HepaRG, extended dosing, 2 weeks): around 10 μM | IC50 ([1]; HepaRG, wk 3 exposure, galactose media, read-out: IC50-ATP ± S.D., Galactose): 5.7 ± 2.8 µM | IC50 ([1]; Homo sapiens, HepaRG, wk 1, galactose media, total cellular protein, read-out: IC50-viability ± S.D., Galactose): 101 ± 27 µM | IC50 ([1]; Homo sapiens, HepaRG, wk 1, glucose media, total cellular protein, read-out: IC50-viability ± S.D., Glucose): 118 ± 42 µM | IC50 ([1]; Homo sapiens, HepaRG, wk 1 exposure, galactose media, read-out: IC50-ATP ± S.D., Galactose): 103 ± 13.8 µM | IC50 ([1]; Homo sapiens, HepaRG, wk 1 exposure, glucose media, read-out: IC50-ATP ± S.D., Glucose): 112 ± 32.8 µM | IC50 ([1]; Homo sapiens, HepaRG, wk 2, galactose media, total cellular protein, read-out: IC50-viability ± S.D., Galactose): 7.3 ± 3.8 µM | IC50 ([1]; Homo sapiens, HepaRG, wk 2, glucose media, total cellular protein, read-out: IC50-viability ± S.D., Glucose): 26.1 ± 9.3 µM | IC50 ([1]; Homo sapiens, HepaRG, wk 2 exposure, glucose media, read-out: IC50-ATP ± S.D., Glucose): 16.8 ± 2.3 µM | IC50 ([1]; Homo sapiens, HepaRG, wk 3, galactose media, total cellular protein, read-out: IC50-viability ± S.D., Galactose): 15.5 ± 3.4 µM | IC50 ([1]; Homo sapiens, HepaRG, wk 3, glucose media, total cellular protein, read-out: IC50-viability ± S.D., Glucose): 14.2 ± 1.3 µM | IC50 ([1]; Homo sapiens, HepaRG, wk 3 exposure, galactose media, read-out: IC50-ATP ± S.D., Galactose): 5 µM | IC50 ([1]; Homo sapiens, HepaRG, wk 3 exposure, glucose media, read-out: IC50-ATP ± S.D., Glucose): 5.4 ± 2.3 µM | IC50 ([1]; Homo sapiens, HepaRG, wk 4, galactose media, total cellular protein, read-out: IC50-viability ± S.D., Galactose): 3.6 ± 2.8 µM | IC50 ([1]; Homo sapiens, HepaRG, wk 4, glucose media, total cellular protein, read-out: IC50-viability ± S.D., Glucose): 7.6 ± 3.3 µM | IC50 ([1]; Homo sapiens, HepaRG, wk 4 exposure, galactose media, read-out: IC50-ATP ± S.D., Galactose): 7.3 ± 0.5 µM | IC50 ([1]; Homo sapiens, HepaRG, wk 4 exposure, glucose media, read-out: IC50-ATP ± S.D., Glucose): 4.9 ± 1.5 µM | Parameters of oxygen consumption (BR, ALR, MR, SRC, PL, CE) ([2]; 12 μM, 1 week): no significant changes | ATP-linked respiration (ALR), % of vehicle control ([2]; 12 μM, 2 weeks): 77.4 ± 21.5% | Basal respiration (BR), % of vehicle control ([2]; 12 μM, 2 weeks): 85.7 ± 28.1% | Maximal respiration (MR), % of vehicle control ([2]; 12 μM, 2 weeks): 72.0 ± 19.1% | Proton leak (PL) and coupling efficiency (CE) ([2]; 12 μM, 2 weeks): remained unchanged | Spare respiratory capacity (SRC), % of vehicle control ([2]; 12 μM, 2 weeks): 65.9 ± 15.5% | Extracellular acidification rate ([2]; over 2 weeks of treatment): no dose- or time-dependent increases | Complex I activity, % of vehicle control ([15]; 2 weeks): 26.9 ± 6.9% | Complex II activity, % of vehicle control ([15]; 2 weeks): 35.5 ± 17.7% | Complex IV activity, % of vehicle control ([15]; 2 weeks): 36.0 ± 15.9% | Complex I activity, % of vehicle control ([15]; week 1): 67.4 ± 13.5% | Complex II activity, % of vehicle control ([15]; week 1): 70.3 ± 9.8%
